From patent US4260607A, “Cephalosporin esters” (Takeda Chemical Industries, Ltd., priority 1976, dated 1981)
≈ marks a conversion by molar mass, not a printed value. Where a name gives a salt, the structure may show the parent alone.

What was measured:
S. aureus 1840 = assay: MIC, S. aureus 1840; type: cell-based; conditions: unit assumed
K. pneumoniae DT = assay: MIC, K. pneumoniae DT; type: cell-based; conditions: unit assumed
E. coli 0-111 = assay: MIC, E. coli 0-111; type: cell-based; conditions: unit assumed
P. vulgaris Eb. 58 = assay: MIC, P. vulgaris Eb. 58; type: cell-based; conditions: unit assumed
E. coli NIHJ JC-2 = assay: MIC, E. coli NIHJ JC-2; type: cell-based; conditions: unit assumed
S. aureus 209P = assay: MIC, S. aureus 209P; type: cell-based; conditions: unit assumed
[1] = in vivo, po; for Blood-level in rat, 0.5 hours: 30 min; for Blood-level in rat, 1 hour: 60 min; for Blood-level in rat, 2 hours: 120 min; for Hydrolysis of 4-position ester after absorption in blood: rat

| Compound | MIC (S. aureus 1840) [µg/mL] | MIC (K. pneumoniae DT) [µg/mL] | MIC (E. coli 0-111) [µg/mL] | MIC (P. vulgaris Eb. 58) [µg/mL] | MIC (E. coli NIHJ JC-2) [µg/mL] | MIC (S. aureus 209P) [µg/mL] | Blood-level in rat, 0.5 hours ([1]; 100 mg/kg) [meg/ml] | Blood-level in rat, 1 hour ([1]; 100 mg/kg) [meg/ml] | Blood-level in rat, 2 hours ([1]; 100 mg/kg) [meg/ml] | Blood-level in rat, 4 hours ([1]; 100 mg/kg, 240 min) [meg/ml] | Hydrolysis of 4-position ester after absorption in blood [1] |
| --- | --- | --- | --- | --- | --- | --- | --- | --- | --- | --- | --- |
| CC1=C(C(=O)O)N2C(=O)[C@@H](NC(=O)[C@H](N)c3ccccc3)[C@H]2SC1 [Cephalexin, reference compound] | 12.5 (≈ 36 µM) | 6.25 (≈ 18 µM) | 12.5 (≈ 36 µM) | 12.5 (≈ 36 µM) | 12.5 (≈ 36 µM) | – | – | – | – | – | – |
| Cc1nnc(SCC2=C(C(=O)O)N3C(=O)[C@@H](NC(=O)Cc4csc(=N)[nH]4)[C@H]3SC2)s1 [Compound (A)] | 0.78 (≈ 1.61 µM) | 0.39 (≈ 0.805 µM) | 0.39 (≈ 0.805 µM) | 0.78 (≈ 1.61 µM) | 1.56 (≈ 3.22 µM) | 0.39 (≈ 0.805 µM) | – | – | – | – | – |
| Cc1nnc(SCC2=C(C(=O)OCOC(=O)C(C)(C)C)N3C(=O)[C@@H](NC(=O)Cc4csc(=N)[nH]4)[C@H]3SC2)s1 [Example 1, 7β-(2-imino-4-thiazolin-4-yl)acetamido-3-(5-methyl-1,3,4-thiadizolyl-2-yl)thiomethyl-3-cephem-4-pivaloyloxymethyl carboxylate hydrochloric acid salt] | – | – | – | – | – | – | 31.8 | 29.3 | 22.0 | 8.7 | hydrolyzed at 4-position carboxylic acid ester after being absorbed in blood |
| CCOC(=O)OC(C)OC(=O)C1=C(CSc2nnc(C)s2)CS[C@@H]2[C@H](NC(=O)Cc3csc(=N)[nH]3)C(=O)N12 (some centres unmarked) [Example 2] | – | – | – | – | – | – | 32.4 | 28.3 | 21.0 | – | hydrolyzed at 4-position carboxylic acid ester after being absorbed in blood |
